Reference: patent publication US20250257041A1, “INDUCERS OF INTEGRATED STRESS RESPONSE TO TREAT CANCER” (The Board of Regents of The University of Texas System, priority 2022, published 2025)

The compounds below were run on HCT116 WT (assay: Proliferation of HCT116 colorectal cell line, Cell TiterGlo). Settings: Homo sapiens, HCT-116, wild type HCT116; 10-point dose response in triplicate; multiple values = separate independent experiments; read-out: HCT116 IC50 (uM) HCT116 WT.
Type: cell-based, human
Method: Briefly, compounds were tested for their effect on proliferation of HCT116 colorectal cell lines using Cell TiterGlo (Promega). Each compound was tested in a 10-point dose response experiment in triplicate. Multiple values in the column titled HCT116 WT reflect separate independent experiments. The three columns titled “HCT116 WT (repeat)”, “HCT116-CGN2KO” and “HCT116 WT+ISRIB” provide data for selected compounds that were tested simultaneously under three conditions. The HCT116 WT column lists IC50 against the wild type HCT116 colorectal cancer cell line. The HCT116-CGN2KO lists IC50 data for cells in which one component of the integrated stress response, GCN2, has been knocked out using CRISPR technology.

How did the IC50 turn out when `CC(=O)Nc1cccc(C(=O)Nc2cc(-c3ccc(NC(=O)c4ccccc4Cl)cc3)nn2C)c1` [SW394894-1, N-(4-(5-(3-acetamidobenzamido)-1-methyl-1H-pyrazol-3-yl)phenyl)-2-chlorobenzamide] was run?
Its IC50 is 0.01 µM.

With `CCn1nc(-c2ccc(NC(=O)c3ccccc3Cl)cc2)cc1NC(=O)c1ccccc1` [SW393214, N-(4-(5-Benzamido-1-ethyl-1H-pyrazol-3-yl)phenyl)-2-chlorobenzamide] as the compound, how does the IC50 read?
Its IC50 is 0.57 µM.

For `Cn1nc(-c2ccc(NC(=O)N3CCOCC3)cc2)cc1NC(=O)c1ccccc1` [SW394892-1, N-(4-(5-benzamido-1-methyl-1H-pyrazol-3-yl)phenyl)morpholine-4-carboxamide], which IC50 is on record?
The IC50 was > 5 µM.

With `Cn1nc(-c2ccc(NC(=O)C3CCCCC3)cc2)cc1NC(=O)c1ccccc1` [SW394442, N-(3-(4-(Cyclohexanecarboxamido)phenyl)-1-methyl-1H-pyrazol-5-yl)benzamide] as the compound, how does the IC50 read?
Its IC50 is 0.024 µM.

How did the IC50 turn out when `Cc1ncccc1C(=O)Nc1ccc(-c2cc(NC(=O)C3CCC(F)(F)CC3)n(C)n2)c(F)c1` [SW394696, N-(4-(5-(4,4-Difluorocyclohexane-1-carboxamido)-1-methyl-1H-pyrazol-3-yl)-3-fluorophen-yl)-2-methylnicotinamide] was run?
The IC50 was 0.09 µM.

For `Cc1ncccc1C(=O)Nc1ccc(-c2cc(NC(=O)c3ccccc3Cl)n(C)n2)cc1` [SW394630, N-(4-(5-(2-Chlorobenzamido)-1-methyl-1H-pyrazol-3-yl)phenyl)-2-methylnicotinamide], which IC50 is on record?
Its IC50 is 0.014 µM.

`Cn1nc(-c2ccc(NC(=O)c3ccccc3Cl)cc2)cc1NC(=O)c1cccc(CCCNC(=O)CCCC[C@H]2SC[C@H]3NC(=O)N[C@H]32)c1` [SW394692, 2-chloro-N-(4-(1-methyl-5-(3-(3-(5-((3aR,4R,6aS)-2-oxohexahydro-1H-thieno[3,4-d]142 imidazole-4-yl)pentanamido)propyl)benzamido)-1H-pyrazol-3-yl)phenyl)benzamide] was tested. Which IC50 did it give?
Its IC50 is 0.5 µM.

For `Cn1nc(-c2ccc(NC(=O)c3ccccc3COCCNC(=O)OC(C)(C)C)cc2)cc1NC(=O)c1ccccc1` [SW394532, tert-butyl (2-((2-((4-(5-benzamido-1-methyl-1H-pyrazol-3-yl)phenyl)carbamoyl)benzyl)oxy)ethyl)carbamate], which IC50 is on record?
Its IC50 is 0.121 µM.

`O=C(Nc1cccc(-c2ccc(NC(=O)c3ccccc3Cl)cc2)c1)c1ccccc1` [SW394484, N-(3′-benzamido-[1,1′-biphenyl]-4-yl)-2-chlorobenzamide] was tested. Which IC50 did it give?
The IC50 was 3.94 µM.

For `Cn1nc(-c2ccc(NC(=O)c3ccccc3Cl)cc2)cc1NC(=O)c1ccccc1Br` [SW393218, 2-bromo-N-(3-(4-(2-chlorobenzamido)phenyl)-1-methyl-1H-pyrazol-5-yl)benzamide], which IC50 is on record?
Its IC50 is 0.02 µM.

Which IC50 does the source give for `Cn1nc(-c2ccc(NC(=O)c3ccncc3Cl)cc2)cc1NC(=O)c1ccccc1` [SW394446, N-(4-(5-Benzamido-1-methyl-1H-pyrazol-3-yl)phenyl)-3-chloroisonicotinamide] here?
Its IC50 is 0.05 µM.

For `Cn1nc(-c2ccc(NC(=O)c3ncccc3Cl)cc2)cc1NC(=O)c1ccccc1` [SW394447, N-(4-(5-Benzamido-1-methyl-1H-pyrazol-3-yl)phenyl)-3-chloropicolinamide], which IC50 is on record?
The IC50 was 0.58 µM.

`Cn1nc(-c2ccc(NC(=O)c3ccccc3COCCN=[N+]=[N-])cc2)cc1NC(=O)c1cccc(C(=O)c2ccccc2)c1` [SW394738, 2-((2-azidoethoxy)methyl)-N-(4-(5-(3-benzoylbenzamido)-1-methyl-1H-pyrazol-3-yl)phenyl)benzamide] was tested. Which IC50 did it give?
The IC50 was 0.07 µM.

For `Cc1ncccc1C(=O)Nc1ccc(-c2cc(NC(=O)c3cccc(N(C)C)c3)n(C)n2)cc1` [SW394871, N-(4-(5-(3-(Dimethylamino)benzamido)-1-methyl-1H-pyrazol-3-yl)phenyl)-2-methylnicotine-amide], which IC50 is on record?
Its IC50 is 0.01 µM.

How did the IC50 turn out when `Cc1ncccc1C(=O)Nc1ccc(-c2cc(N(C)C(=O)c3ccccc3)n(C)n2)cc1` [SW394880-1, 2-methyl-N-(4-(1-methyl-5-(N-methylbenzamido)-1H-pyrazol-3-yl)phenyl)nicotinamide] was run?
The IC50 was 1.04 µM.

For `C#CCOCc1ccccc1C(=O)Nc1ccc(-c2cc(NC(=O)c3ccccc3)n(C)n2)cc1` [SW393189, N-(4-(5-benzamido-1-methyl-1H-pyrazol-3-yl)phenyl)-2-((prop-2-yn-1-yloxy)methyl)benzamide], which IC50 is on record?
The IC50 was 0.06 µM.

Which IC50 does the source give for `COc1cccc(C(=O)Nc2ccc(-c3cc(NC(=O)c4ccccc4)n(C)n3)cc2)c1` [SW388711, N-(4-(5-Benzamido-1-methyl-1H-pyrazol-3-yl)phenyl)-3-methoxybenzamide] here?
The IC50 was 1.09 µM.

For `Cn1nc(-c2ccc(NC(=O)c3ccccc3Cl)cc2)cc1NC(=O)C1CCCC1` [SW394600, 2-Chloro-N-(4-(5-(cyclopentanecarboxamido)-1-methyl-1H-pyrazol-3-yl)phenyl)benzamide], which IC50 is on record?
The IC50 was 0.051 µM.

Which IC50 does the source give for `Cn1nc(-c2ccc(NC(=O)c3cc(NC(=O)OC(C)(C)C)ccc3Cl)cc2)cc1NC(=O)c1ccccc1` [SW394967, tert-butyl (3-((4-(5-benzamido-1-methyl-1H-pyrazol-3-yl)phenyl)carbamoyl)-4-chlorophenyl)carbamate] here?
Its IC50 is 0.541 µM.

How did the IC50 turn out when `Cn1nc(-c2ccc(NC(=O)c3ccccc3Cl)cc2)cc1NC(=O)c1ccc(C(=O)c2ccccc2)cc1` [SW393188, N-(4-(5-(4-benzoylbenzamido)-1-methyl-1H-pyrazol-3-yl)phenyl)-2-chlorobenzamide] was run?
Its IC50 is 0.6 µM.

Which IC50 does the source give for `Cn1nc(-c2ccc(NC(=O)c3cccc(CN=[N+]=[N-])c3Cl)cc2)cc1NC(=O)c1ccccc1Cl` [SW394763, 3-(azidomethyl)-2-chloro-N-(4-(5-(2-chlorobenzamido)-1-methyl-1H-pyrazol-3-yl)phenyl)benzamide] here?
Its IC50 is 0.02 µM.

Which IC50 does the source give for `Cn1nc(-c2ccc(NC(=O)c3ccccc3CN3CCOCC3)cc2)cc1NC(=O)c1ccccc1` [SW393298, N-(4-(5-Benzamido-1-methyl-1H-pyrazol-3-yl)phenyl)-2-(morpholinomethyl)benzamide] here?
The IC50 was 0.15 µM.

Which IC50 does the source give for `Cc1ncccc1C(=O)Nc1ccc(-c2cc(NC(=O)c3ccccc3F)n(C)n2)c(F)c1` [SW394695, N-(3-Fluoro-4-(5-(2-fluorobenzamido)-1-methyl-1H-pyrazol-3-yl)phenyl)-2-methylnicotinamide] here?
Its IC50 is 0.03 µM.

Which IC50 does the source give for `Cn1nc(-c2ccc(NC(=O)c3ccccc3-c3ccc([N+](=O)[O-])cc3)cc2)cc1NC(=O)c1ccccc1` [SW394548, N-(4-(5-Benzamido-1-methyl-1H-pyrazol-3-yl)phenyl)-4′-nitro-[1,1′-biphenyl]-2-carboxam-ide] here?
The IC50 was 1.13 µM.

`Cn1nc(-c2ccc(NC(=O)c3ccccc3Cl)cc2)cc1NC(=O)C1CCOCC1` [SW394547, N-(3-(4-(2-Chlorobenzamido)phenyl)-1-methyl-1H-pyrazol-5-yl)tetrahydro-2H-pyran-4-car-boxamide] was tested. Which IC50 did it give?
The IC50 was 0.05 µM.

How did the IC50 turn out when `Cn1nc(-c2ccc(NC(=O)c3cccc(CN)c3Cl)cc2)cc1NC(=O)c1ccccc1Cl` [SW394771, 3-(aminomethyl)-2-chloro-N-(4-(5-(2-chlorobenzamido)-1-methyl-1H-pyrazol-3-yl)phenyl)benzamide] was run?
Its IC50 is 0.086 µM.

For `Cn1nc(C2CCC(NC(=O)c3ccccc3Cl)CC2)cc1NC(=O)c1ccccc1` (stereo not shown) [SW394444, N-(4-(5-benzamido-1-methyl-1H-pyrazol-3-yl)cyclohexyl)-2-chlorobenzamide], which IC50 is on record?
Its IC50 is > 50 µM.

`Cn1nc(-c2ccc(NC(=O)c3ccccc3F)cc2)cc1NC(=O)c1ccccc1` [SW393241, N-(4-(5-Benzamido-1-methyl-1H-pyrazol-3-yl)phenyl)-2-fluorobenzamide] was tested. Which IC50 did it give?
The IC50 was 0.04 µM.

`Cn1nc(-c2ccc(NC(=O)c3ccccc3Cl)cc2)cc1NC(=O)c1ccccc1F` [SW393244, 2-chloro-N-(4-(5-(2-fluorobenzamido)-1-methyl-1H-pyrazol-3-yl)phenyl)benzamide] was tested. Which IC50 did it give?
Its IC50 is ~0.01 µM.

With `Cn1nc(-c2ccc(NC(=O)C3CCCCCC3)cc2)cc1NC(=O)c1ccccc1` [SW394515, N-(4-(5-Benzamido-1-methyl-1H-pyrazol-3-yl)phenyl)cycloheptanecarboxamide] as the compound, how does the IC50 read?
Its IC50 is 0.044 µM.

Which IC50 does the source give for `Cn1nc(-c2ccc(NC(=O)c3ccccc3Cl)cc2)cc1NC(=O)C1CCCC(NC(=O)OC(C)(C)C)C1` (single isomer, unassigned) [SW394868-isomer 2] here?
The IC50 was 0.12 µM.

`Cc1ncccc1C(=O)Nc1ccc(-c2cc(NC(=O)C3CCOCC3)n(C)n2)cc1` [SW394746, 2-Methyl-N-(4-(1-methyl-5-(tetrahydro-2H-pyran-4-carboxamido)-1H-pyrazol-3-yl)phenyl)nicotinamide] was tested. Which IC50 did it give?
The IC50 was 0.13 µM.

With `COc1cc(-c2cc(NC(=O)c3ccccc3)n(C)n2)ccc1NC(=O)c1ccccc1Cl` [SW393279, N-(4-(5-benzamido-1-methyl-1H-pyrazol-3-yl)-2-methoxyphenyl)-2-chlorobenzamide] as the compound, how does the IC50 read?
Its IC50 is > 10 µM.

Same assay, conditions: wild type HCT116; 10-point dose response in triplicate; multiple values = separate independent experiments

How did the “HCT116 IC50 (uM) HCT116 WT” value turn out when `Cn1nc(-c2ccc(NC(=O)C3CCCO3)cc2)cc1NC(=O)c1ccccc1` (single isomer, unassigned) [SW394516 (isomer 1)] was run?
Its value is “inactive”.

For `O=C(Nc1cccc(-c2ccc(NC(=O)c3ccccc3Cl)cc2)n1)c1ccccc1` [SW394535, N-(4-(6-benzamidopyridin-2-yl)phenyl)-2-chlorobenzamide], which “HCT116 IC50 (uM) HCT116 WT” value is on record?
Its value is “inactive”.

`Cn1nc(-c2ccc(NC(=O)c3ccccc3Cl)cc2)cc1NC(=O)c1cccc(C(=O)O)c1` [SW394800, 3-((3-(4-(2-Chlorobenzamido)phenyl)-1-methyl-1H-pyrazol-5-yl)carbamoyl)benzoic acid] was tested. Which “HCT116 IC50 (uM) HCT116 WT” value did it give?
Its value is “inactive”.

Same assay, conditions: wild type HCT116; 10-point dose response in triplicate; multiple values = separate independent experiments; read-out: HCT116 IC50 (uM) HCT116 WT

How did the IC50 turn out when `Cn1nc(-c2ccc(NC(=O)N3CCCCC3)cc2)cc1NC(=O)c1ccccc1` [SW394601, N-(4-(5-benzamido-1-methyl-1H-pyrazol-3-yl)phenyl)piperidine-1-carboxamide] was run?
Its IC50 is 7.4 µM.
